Key:
Assay type in all cases: cell-based
HIV-1 (NL4-3) = test: HIV-1 infection assay on Raji-CD4 and Raji-CD4-DCIR cells (p24 in supernatant); conditions: Raji-CD4 vs Raji-CD4-DCIR, NL4-3 2 h, culture 3 d
Procedure: FIG. 5 is a bar graph showing that specific inhibitors against the site A (A1, A4) and site B (B1, B2) decrease infectivity of Raji-CD4-DCIR. Raji-CD4 and Raji-CD4-DCIR were treated with the inhibitors selected following experiments described in FIG. 4, or DMSO. Cells were then exposed to NL4-3 for 2 h, rinsed and maintained in culture for 3d. Cell-free culture supernatants were collected and assayed for p24 content. Data shown correspond to the means±SEM from 3 independent experiments performed with triplicate samples. The asterisk (*) denotes statistically significant data (*, P<0.05, ** P<0.01, *** P<0.001).
(§1) Where indicated, 1×10^6 parental Raji-CD4 cells (DCIR-negative), Raji-CD4-DCIR or Raji-DC-SIGN transfectants were pre-treated with the indicated amount of a chemical inhibitor for 10 min. Cells were then pulsed with NL4-3 (an equivalent of 100 ng of p24) for 60 min at 37° C. The virus-cell mixture was then washed three times with PBS to remove unbound virus and re-suspended in PBS containing 1% BSA. Binding/entry was then determined by the p24 content by ELISA as above. For the infection assay, Raji-CD4 and Raji-CD4-DCIR (1×10^6 cells) were exposed to NL4-3 viral stock (100 ng of p24) for 2 h at 37° C. After three washes with PBS to remove excess virus, cells were maintained in culture for up to 9 days. Cell-free culture supernatants were collected at the indicated time points and assayed for p24 content.

HIV-1 (NL4-3/Balenv) [1] = test: HIV-1 infection assay on iMDDCs (p24 in supernatant); conditions: IM-MDDCs, NL4-3balenv 2 h, culture up to 9 days
Procedure: (§2) FIG. 7 is bar graphs showing that selected site A and site B inhibitors decrease HIV-1 binding and infection of IM-MDDCs. Upper panel: IM-MDDCs were treated with two chemical inhibitors directed against site A (A1 and A4) and two inhibitors directed against site B (B1 and B2) (or DMSO) for 10 min at 37° C. Next, cells were pulsed with NL4-3balenv for 60 min at 37° C. and rinsed extensively before measuring p24 content. Lower panel: In some experiments, similarly treated IM-MDDCs were pulsed with NL4-3balenv for 2 h at 37° C., rinsed extensively, and maintained in complete culture medium supplemented with GM-CSF and IL-4 for up to 9 days with medium replenishment every 3 days. Cell-free culture supernatants were quantified by measuring p24 content. Data shown correspond to the means±SEM of 3 independent experiments performed in triplicate. The asterisks denotes statistically significant data (*, P<0.05; **, P<0.01; ***, P<0.001).
(§3) For assessing binding/entry, iMDDCs (3×10^5 cells in a final volume of 300 μl) were pre-treated with 10 μM of different chemical inhibitors for 10 min and exposed to NL4-3/Balenv (30 ng of p24) for 60 min at 37° C. After three washes with PBS, cells were re-suspended in PBS containing 1% BSA. The p24 content was determined by ELISA, while susceptibility of iMDDCs to HIV-1 infection was assessed by initially exposing 3×10^5 cells to NL4-3/Balenv (30 ng) at 37° C. for 2 h. After three washes with PBS, cells were maintained in complete RPMI 1640 supplemented with GM-CSF and IL-4 in 96-well plates, in a final volume of 200 μl. Every 3 days and for a 9-day period, half of the conditioned medium was collected and kept at −20° C. until assayed. Virus production was estimated as above by measuring p24 levels by ELISA.

DC-SIGN = biological target: T1, DC-SIGN (Homo sapiens, UniProt Q9NNX6); test: HIV-1 binding to Raji-DC-SIGN cells (p24); conditions: NL4-3 60 min
T1 construct: expressed in transfected cells; host or cells: Raji cells stably transfected with a DC-SIGN plasmid
T1 sequence (Q9NNX6 1-404): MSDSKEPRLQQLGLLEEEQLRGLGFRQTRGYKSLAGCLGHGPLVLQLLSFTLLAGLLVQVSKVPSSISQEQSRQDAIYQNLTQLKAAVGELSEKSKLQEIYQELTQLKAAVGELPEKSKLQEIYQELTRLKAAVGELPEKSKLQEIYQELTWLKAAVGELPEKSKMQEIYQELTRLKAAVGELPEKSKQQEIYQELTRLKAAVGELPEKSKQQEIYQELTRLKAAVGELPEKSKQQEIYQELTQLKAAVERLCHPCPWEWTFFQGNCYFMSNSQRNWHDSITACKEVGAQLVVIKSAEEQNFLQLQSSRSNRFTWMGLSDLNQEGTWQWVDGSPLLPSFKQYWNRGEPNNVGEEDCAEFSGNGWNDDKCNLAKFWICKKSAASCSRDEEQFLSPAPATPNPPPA
Procedure: Raji-DC-SIGN cells were treated for 10 min at 37° C. with inhibitors A1 and A4 directed against the site A and B1 and B2 directed against the site B, or with DMSO. Afterwards, cells were pulsed with NL4-3 for 60 min, rinsed thrice with PBS were made to remove unadsorbed virus, and cell-associated viruses were quantified by measuring p24 content. Data shown correspond to the means±SEM of 3 independent experiments performed in triplicate.
as §1

HIV-1 (NL4-3/Balenv) [2] = test: HIV-1 binding assay on iMDDCs (p24); conditions: IM-MDDCs, 10 μM pre-incubation 10 min, NL4-3balenv 60 min
Procedure: as §2, §3

DCIR = biological target: T2, DCIR (Homo sapiens, UniProt Q9UMR7); test: HIV-1 binding/entry assay on Raji-CD4-DCIR cells (cell-associated p24); conditions: 10 μM pre-treatment 10 min; NL4-3 60 min; p24 content
T2 construct: expressed in transfected cells; host or cells: Raji-CD4 (human B cell line stably expressing human CD4), retroviral transduction
T2 sequence (Q9UMR7 1-237): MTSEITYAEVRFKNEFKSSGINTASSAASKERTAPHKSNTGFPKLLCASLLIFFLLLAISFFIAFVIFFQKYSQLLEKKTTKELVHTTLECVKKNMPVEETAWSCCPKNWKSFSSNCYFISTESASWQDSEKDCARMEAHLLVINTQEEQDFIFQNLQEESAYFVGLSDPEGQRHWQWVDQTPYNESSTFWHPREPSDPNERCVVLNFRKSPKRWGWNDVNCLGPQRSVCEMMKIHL
Procedure: FIG. 4 is a bar graph showing that inhibitors decrease HIV-1 binding on DCIR. Raji-CD4-DCIR cells were treated with 10 μM of four site A inhibitors (A1, A2, A3 and A4) and three site B inhibitors (B1, B2 and B3) (or with vehicle (DMSO) only) for 10 min at 37° C. Thereafter, cells were pulsed with NL4-3 for 60 min. After three washes with PBS to remove unadsorbed virus, the abundance of cell-associated viruses was quantified by measuring p24 content. Data shown correspond to the means±SEM of three independent experiments performed with triplicate samples. The asterisk (*) denotes statistically significant data (*, P<0.05, ** P<0.01, *** P<0.001).
as §1

## c1ccc(-c2ccc(-c3ccccn3)nn2)nc1 [Compound A4, 3,6-di-2 pyridinylpyridazine]
HIV-1 (NL4-3)
  HIV-1 production: decreased HIV-1 production only in DCIR-expressing cells
HIV-1 (NL4-3/Balenv) [1]
  productive infection of DCs: blocked productive infection
DC-SIGN
  HIV-1 binding to DC-SIGN: do not block HIV-1 attachment to DC-SIGN
HIV-1 (NL4-3/Balenv) [2]
  HIV-1 binding to DCs: decreased significantly
DCIR
  HIV-1 attachment to Raji-CD4-DCIR cells: statistically significant decrease
